# Experimental data from patent publication US20220257725A1, “COMPOSITIONS AND METHODS FOR TREATING PEROXISOMAL BIOGENESIS DISORDERS” (University of Utah Research Foundation, priority 2019, published 2022).
# T1: yeast Pex25 (yeast (S. cerevisiae), UniProt Q02969 1-394)
# T1 sequence (looked up): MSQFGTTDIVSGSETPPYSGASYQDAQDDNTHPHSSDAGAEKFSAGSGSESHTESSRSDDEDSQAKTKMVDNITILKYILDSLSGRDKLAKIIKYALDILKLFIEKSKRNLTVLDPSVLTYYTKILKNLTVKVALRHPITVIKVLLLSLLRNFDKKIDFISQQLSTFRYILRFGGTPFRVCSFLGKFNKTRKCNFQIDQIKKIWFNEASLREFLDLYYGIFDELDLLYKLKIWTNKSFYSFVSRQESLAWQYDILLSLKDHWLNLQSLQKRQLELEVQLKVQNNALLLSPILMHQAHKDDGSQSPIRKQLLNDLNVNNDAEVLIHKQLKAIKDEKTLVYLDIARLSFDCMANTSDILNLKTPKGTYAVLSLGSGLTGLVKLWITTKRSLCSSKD
# B1: yeast Pex14 (other, yeast (S. cerevisiae), UniProt P53112 2-341, looked up)
# chain: SDVVSKDRKALFDSAVSFLKDESIKDAPLLKKIEFLKSKGLTEKEIEIAMKEPKKDGIVGDEVSKKIGSTENRASQDMYLYEAMPPTLPHRDWKDYFVMATATAGLLYGAYEVTRRYVIPNILPEAKSKLEGDKKEIDDQFSKIDTVLNAIEAEQAEFRKKESETLKELSDTIAELKQALVQTTRSREKIEDEFRIVKLEVVNMQNTIDKFVSDNDGMQELNNIQKEMESLKSLMNNRMESGNAQDNRLFSISPNGIPGIDTIPSASEILAKMGMQEESDKEKENGSDANKDDNAVPAWKKAREQTIDSNASIPEWQKNTAANEISVPDWQNGQVEDSIP
# B2: yeast Pex11 (other, yeast (S. cerevisiae), UniProt Q12462 2-236, looked up)
# chain: VCDTLVYHPSVTRFVKFLDGSAGREKVLRLLQYLARFLAVQNSSLLARQLQAQFTTVRKFLRFLKPLNHLQAAAKFYDNKLASDNVVRVCNVLKNIFFAAYLSLDQVNLLRILKVIPVTVLTGKKIPRWSNWCWLFGLLSGLAMDLRKIQTSHAQIAAFVKAKSQSQGDEHEDHKKVLGKAYQDRYTALRRLFWDAADSFIVLNNLGYLSSNEEYVALSGVVTSILGMQDMWKAT
# B3: yeast Pex13-V5 (expressed by its endogenous promotor) (other, yeast (S. cerevisiae), UniProt P80667 1-386, looked up)
# chain: MSSTAVPRPKPWETSASLEEPQRNAQSLSAMMTSNQQDSRPTEESNNSNSASESAPEVLPRPAALNSSGTYGESNTIPGIYGNSNYGIPYDNNPYSMNSIYGNSIGRYGYGGSYYGNNYGSFYGGGYGAGAGYGMNNGSGLGESTKATFQLIESLIGAVTGFAQMLESTYMATHNSFFTMISVAEQFGNLKEMLGSFFGIFAIMKFLKKILYRATKGRLGIPPKNFAESEGSKNKLIEDFQKFNDSGTINSNEKATRRKISWKPLLFFLMAVFGFPYLLNKFITKLQTSGTIRASQGNGSEPIDPSKLEFARALYDFVPENPEMEVALKKGDLMAILSKKDPLGRDSDWWKVRTKNGNIGYIPYNYIEIIKRRKKIEHVDDETRTH
# notes: not shown: V5 tag
# Key:
# [1] = system: PEX3− patient fibroblasts; assay: Unbiased whole cell lipidomics; assay type: cell-based, human; conditions: patient cell line with overexpression of ATAD1
# Procedure: (§1) Representative images of the most observed mitochondrial morphology are shown. […] OCR (pmol/min/norm.unit) for cWT (wild-type), cWT+ATAD1 (wild-type expressing ATAD1) PEX3− (patient), PEX3−+ATAD1 (PEX3− expressing ATAD1), cWT-ATAD1 (wildtype with ATAD1 deletion), PEX3−ATAD1 (patient with ATAD1 deletion) cells plotted against time (XF96e Extracellular Flux Analyzer, Mito-Stress-Test.) Oligomycin A (1 μM), 0.15 μM FCCP and 1 μM rotenone+1 μM antimycin A (final concentrations) were sequentially delivered to the XF96e assay medium through injection ports in the sensor cartridge. n=2 (4+4=8 technical replicates). […] Statistical significance (Welch's test), p values are indicated as: ns (not significant), * p≤0.05, ** p≤0.01, *** p≤0.001, **** p≤0.0001. […] Statistical significance (Welch's test), p values are indicated as: ns (not significant), * p≤0.05, ** p≤0.01, *** p≤0.001, **** p≤0.0001. FIG. 5E show a bar graph representation of calculated respiratory spare capacity (=uncoupled respiration minus basal respiration) of cWT (wild-type), cWT+ATAD1 (wild-type expressing ATAD1) PEX3− (patient), PEX3−+ATAD1 (PEX3− expressing ATAD1), cWT-ATAD1 (wildtype with ATAD1 deletion), PEX3−ATAD1 (patient with ATAD1 deletion). Statistical significance (Welch's test), p values are indicated as: ns (not significant), * p≤0.05, ** p≤0.01, *** p≤0.001, **** p≤0.0001.
# To complement the characterization with other readouts relevant to reflect important mitochondrial function, unbiased whole cell lipidomics was performed. […] Another readout of flourishing mitochondrial metabolism is the capacity of mitochondria to import […] phosphatidylserines (PSs) into phosphatidylethanolamines (PEs). […] The class of phospho-ether lipids (plasmalogens), precursors to myelin, seems to be unaffected (FIG. 5H).
# [2] = system: PEX3− patient fibroblasts; assay: Electron microscopy of mitochondrial morphology; assay type: cell-based, human
# Procedure: Representative images of the most observed mitochondrial morphology are shown. […] OCR (pmol/min/norm.unit) for cWT (wild-type), cWT+ATAD1 (wild-type expressing ATAD1) PEX3− (patient), PEX3−+ATAD1 (PEX3− expressing ATAD1), cWT-ATAD1 (wildtype with ATAD1 deletion), PEX3−ATAD1 (patient with ATAD1 deletion) cells plotted against time (XF96e Extracellular Flux Analyzer, Mito-Stress-Test.) Oligomycin A (1 μM), 0.15 μM FCCP and 1 μM rotenone+1 μM antimycin A (final concentrations) were sequentially delivered to the XF96e assay medium through injection ports in the sensor cartridge. n=2 (4+4=8 technical replicates). […] Statistical significance (Welch's test), p values are indicated as: ns (not significant), * p≤0.05, ** p≤0.01, *** p≤0.001, **** p≤0.0001. […] Statistical significance (Welch's test), p values are indicated as: ns (not significant), * p≤0.05, ** p≤0.01, *** p≤0.001, **** p≤0.0001. FIG. 5E show a bar graph representation of calculated respiratory spare capacity (=uncoupled respiration minus basal respiration) of cWT (wild-type), cWT+ATAD1 (wild-type expressing ATAD1) PEX3− (patient), PEX3−+ATAD1 (PEX3− expressing ATAD1), cWT-ATAD1 (wildtype with ATAD1 deletion), PEX3−ATAD1 (patient with ATAD1 deletion). Statistical significance (Welch's test), p values are indicated as: ns (not significant), * p≤0.05, ** p≤0.01, *** p≤0.001, **** p≤0.0001. […]
# [3] = system: PEX3 deficient (PEX3−) fibroblast cell line derived from a patient with Zellweger Syndrome; assay: Live cell fluorescent imaging of peroxin-GFP localization with ATAD1 overexpression; assay type: cell-based, human
# [4] = system: PEX3− patient fibroblasts; assay: Seahorse XF 96e Flux analyzer respiration (Mito-Stress-Test); assay type: cell-based, human
# Procedure: as §1
# Therefore, it was tested whether removal of the accumulated peroxins is able to restore mitochondrial respiration. To test the direct dependence of this phenotype with the expression levels of ATAD1, additional cell lines with genetic deletion of ATAD1 was generated. A Seahorse XF 96e Flux analyzer was used to measure respiration (FIG. 5B). A significant lower basal rate of respiration in the PEX3^− cell line was observed compared to the complemented wild-type cWT (FIGS. 5B, 5C). […] In the case that the expression level of ATAD1 is sufficient to cause the phenotype, it would be expected that a much more severe phenotype in the patient with an additional ATAD1 deletion. […]
# [5] = target: B3; assay: BN-PAGE of digitonin-solubilised yeast mitochondrial membranes with complexome profiling (co-migration)
# Procedure: Gel was transferred to PVDF membrane and immunoblotted for PEX13^V5 (V5). […] Left panel represents the protein abundance in the wild-type, middle panel in pex19Δ and the right panel in pex19Δmsp1Δ.
# Some peroxisomal matrix proteins were detected that have never been reported to be localized to the mitochondria before (FIG. 2 and FIG. 3A (summary cartoon)). Therefore, it was tested whether the enrichment of peroxins on mitochondria is a random accumulation or a structured event.
# [6] = target: B3; assay: BN-PAGE of digitonin-solubilised yeast mitochondrial membranes with complexome profiling (co-migration in a 150-180 kDa subcomplex)
# yeast Pex25 = target: T1, yeast Pex25; assay: as above
molecule,measurement,setting,value
ATAD1: human AAA-ATPase acting in mitochondrial protein quality control; overexpressed in patient fibroblasts,Cardiolipin levels,[1],normalizes to wild-type levels
same,Phosphatidylethanolamine (PE) levels,[1],slightly higher values than in wild-type
same,Phospho-ether lipids (plasmalogens),[1],unaffected
same,Share accounted as type 3 (mitochondria with fewer cristae),"[2]; PEX3−ATAD+ cells, patient >80% type 2, wild-type about 80% types 1 and 3",about 70%
same,"Mitochondrial morphology (electron density, cristae)","[2]; patient cell line overexpressing ATAD1, electron microscopy",electron density recovers and cristae formation is partially detected
same,PEX13-GFP localization,"[3]; PEX3−ATAD+ cells (ATAD1 overexpressed), Mitotracker far red counterstain",not stabilized in the mitochondrial outer membrane
same,PEX12-GFP distribution,"[3]; PEX12-GFP transiently expressed, ATAD1 overexpressing patient cell line, compared with PEX13-GFP result",very similar distribution with a slightly milder effect
same,Mitochondrial spare capacity (uncoupled minus basal respiration),[4]; PEX3−ATAD+,recovered the mitochondrial spare capacity
same,Uncoupled respiration,"[4]; PEX3−ATAD+ versus cWT, FCCP 0.15 μM",normalized to wild-type respiration
same,Basal mitochondrial respiration,"[4]; PEX3−ATAD+ versus cWT, OCR",restored back to wild-type level
B1,binding result,[5],binds
B2,binding result,[6],binds
B3,binding result,yeast Pex25,binds
